This is an account of results in ChEMBL document CHEMBL1139939, “Synthesis and biological activity of naphthalene analogues of phenstatins: naphthylphenstatins” (Bioorg Med Chem Lett, 2007).

Structures are written as SMILES.

One experiment relates to A549. In words: Cytotoxicity against human A549 cells. In kind it is functional, cell-based.
Molecule `COc1cc(C(OC(C)=O)c2ccc3ccccc3c2)cc(OC)c1OC` (centres undefined) came in with an IC50 greater than 10 µM.
The molecule `COc1ccc(C(OC(C)=O)c2ccc3ccccc3c2)c(OC)c1OC` (centres undefined) showed an IC50 greater than 10 µM.
Same read-out and setting: the result for `COc1ccc(C(O)c2ccc3ccccc3c2)c(OC)c1OC` (centres undefined) reads greater than 10 µM.
With `COc1cc(C(=O)c2ccc3ccccc3c2)cc(OC)c1OC`, inhibition was half-maximal at 0.25 µM (IC50).
On the same count and under the same terms, the result for `COc1cc(/C=C\c2ccc3ccccc3c2)cc(OC)c1OC` [NAPHTHYLCOMBRETASTATIN] reads 0.02 µM; that for `COc1ccc(C(=O)c2ccc3ccccc3c2)c(OC)c1OC`, greater than 10 µM.

Another experiment concerns HT-29. In words: Cytotoxicity against human HT29 cells. It is filed as functional, cell-based.
In turn, `COc1cc(C(OC(C)=O)c2ccc3ccccc3c2)cc(OC)c1OC` (centres undefined) displayed an IC50 greater than 10 µM.
Same read-out and setting: the result for `COc1ccc(C(OC(C)=O)c2ccc3ccccc3c2)c(OC)c1OC` (centres undefined) reads greater than 10 µM.
For `COc1ccc(/C=C\c2cc(OC)c(OC)c(OC)c2)cc1O` [COMBRETASTATIN A4], the IC50 was 0.003 µM.
The same measure, in the same setting: the result for `COc1ccc(C(O)c2ccc3ccccc3c2)c(OC)c1OC` (centres undefined) reads greater than 10 µM; that for `COc1cc(/C=C\c2ccc3ccccc3c2)cc(OC)c1OC` [NAPHTHYLCOMBRETASTATIN], 0.02 µM; that for `COc1ccc(C(=O)c2ccc3ccccc3c2)c(OC)c1OC`, greater than 10 µM.

A further experiment has as its target T1, Tubulin (Homo sapiens) (UniProt P68371+Q9H4B7+P0DPH7+P68366+Q13509+Q71U36+P04350+Q3ZCM7+P07437+P68363+Q9BQE3+Q6PEY2+Q13885+Q9BVA1+Q9BUF5). In words: Inhibition of tubulin polymerization at 20 uM. In kind it is protein-complex assay.
`COc1cc(C(OC(C)=O)c2ccc3ccccc3c2)cc(OC)c1OC` (centres undefined) came in with an inhibition of 5%.
The molecule `COc1ccc(C(OC(C)=O)c2ccc3ccccc3c2)c(OC)c1OC` (centres undefined) returned an inhibition of 26%.
`COc1ccc(C(O)c2ccc3ccccc3c2)c(OC)c1OC` (centres undefined): the inhibition was 0%.
`COc1ccc(C(=O)c2ccc3ccccc3c2)c(OC)c1OC` returned an inhibition of 4%.

A further experiment concerns the target T1, Tubulin (Homo sapiens). In words: Inhibition of tubulin polymerization at 40 uM. In kind it is protein-complex assay.
In turn, `COc1cc(C(O)c2ccc3ccccc3c2)cc(OC)c1OC` (centres undefined) displayed an inhibition of 0%.
As for `COc1cc(C(=O)c2ccc3ccccc3c2)cc(OC)c1OC`, the inhibition was determined as 100%.

For the next experiment, the system named is HeLa. In words: Cytotoxicity against human HeLa cells. It is filed as functional, cell-based.
`COc1cc(C(OC(C)=O)c2ccc3ccccc3c2)cc(OC)c1OC` (centres undefined) registered a half-inhibitory concentration (IC50) of 3.8 µM.
The same measure, in the same setting: the result for `COc1ccc(C(OC(C)=O)c2ccc3ccccc3c2)c(OC)c1OC` (centres undefined) reads 2.7 µM; that for `COc1ccc(C(O)c2ccc3ccccc3c2)c(OC)c1OC` (centres undefined), greater than 10 µM.
Regarding `COc1cc(C(=O)c2ccc3ccccc3c2)cc(OC)c1OC`, the midpoint of inhibition, the IC50, lay at 0.042 µM.
The molecule `COc1cc(/C=C\c2ccc3ccccc3c2)cc(OC)c1OC` [NAPHTHYLCOMBRETASTATIN] gave an IC50 of 0.02 µM.
On to `COc1ccc(C(=O)c2ccc3ccccc3c2)c(OC)c1OC`, for which the IC50 turned out to be 1.7 µM.
